# Assay results: US9480259B2, “Pyrazolopyrans having herbicidal and pharmaceutical properties” (BASF SE, priority 2012, dated 2016)
# Target: Arabidopsis thaliana SHMT
# Assay: SHMT activity assay (ED50 SHMT), coupled with N5,N10-CH2-THF dehydrogenase, NADH at 340 nm
# Type: biochemical
# Conditions: Table 2; values given as upper bounds
# Experimental: Determination of the ED50 SHMT was carried out as described hereinunder.
# Purification of Arabidopsis thaliana SHMT
# The following buffers were used during the purification protocol:
# Buffer A (Lysis and Wash Buffer): • 20 mM Na-Phosphat (pH 7,4) • 500 mM NaCI • 40 mM Imidazole • 1.0 mM L-Serine • 0.5 mM Pyridoxal-5-phosphate • 0.5 mM DTT
# Buffer B (Elution Buffer): • 20 mM Na-Phosphat (pH 7,4) • 500 mM NaCl • 250 mM Imidazole • 1.0 mM L-Serine • 0.5 mM Pyridoxal-5-phosphate • 0.5 mM DTT
# All procedures were conducted at 4° C. or on ice. Pellets were suspended in Buffer A containing 1 mg/ml DNAse +Complete EDTA-free protease inhibitor tablet. Cells were lysed using sonication or a French Press device, using standard settings. Lysis was centrifuged at 40000×g for 25 minutes. The supernatant was filtered (0.22 μM) before loading onto a Ni-NTA column.
# A gravity flow column containing Ni-NTA resin was equilibrated with 10 CV Buffer A and loaded with filtered cell lysate. The column was then washed with 10 CV Buffer A. Elution was afforded using Buffer B and collected manually as mini-factions. EDTA was added after elution to a final concentration of 1 mM. Fractions were pooled on the basis of the correct band for SHMT visualised via SDS-PAGE and staining.
# SHMT Assay Buffer: • 50 mM KH2PO4 (pH 7,4) • 2.0 mM NAD+ • 7.5 mM DTT • 0.3 mM Tetrahydrofolic acid • 4% DMSO
# Reaction Start: 20 mM L-Serine
# The rate of N5,N10-CH2-THF formation catalyzed by SHMT was monitored at 340 nm by coupling with excess N5,N10-CH2-THF dehydrogenase, which converts NAD+to NADH. Reactions were initiated by adding 20 mM L-Serine. Inhibition of initial velocity was determined by adding various inhibitors of the SHMT reaction and monitored as described. Reactions were measured in a Bio Tek micro titer plate reader following the change in absorption with the formation of NADH for 30 mimnutes.
row,SMILES,EC50 [nM]
1,CCC1(c2cccc(C(F)(F)F)c2)C(C#N)=C(N)Oc2[nH]ncc21 (centres unmarked) [Compound 2.63.],< 10000
2,CCC1(c2cc(C(F)(F)F)cc(C(F)(F)F)c2)C(C#N)=C(N)Oc2[nH]ncc21 (centres unmarked) [Compound 2.64.],< 1000
3,CCC1(c2ccc(F)c(C(F)(F)F)c2)C(C#N)=C(N)Oc2[nH]nc(C)c21 (centres unmarked) [Compound 2.65.],< 1000
4,Cc1n[nH]c2c1C(c1cccc([N+](=O)[O-])c1)(C(F)(F)F)C(C#N)=C(N)O2 (centres unmarked) [Compound 2.68.],< 1000
5,CCC1(c2ccc(NC(=O)OC)cc2)C(C#N)=C(N)Oc2[nH]nc(C)c21 (centres unmarked) [Compound 2.80.],< 1000
6,CCC(=O)Nc1ccc(C2(CC)C(C#N)=C(N)Oc3[nH]nc(C)c32)cc1 (centres unmarked) [Compound 2.81.],< 1000
7,CCC1(c2cc(C(F)(F)F)cc(C(F)(F)F)c2)C(C#N)=C(N)Oc2[nH]nc(COC)c21 (centres unmarked) [Compound 2.82.],< 1000
8,CCCc1n[nH]c2c1C(CC)(c1cc(C(F)(F)F)cc(C(F)(F)F)c1)C(C#N)=C(N)O2 (centres unmarked) [Compound 2.83.],< 1000
9,CCc1n[nH]c2c1C(CC)(c1cc(C(F)(F)F)cc(C(F)(F)F)c1)C(C#N)=C(N)O2 (centres unmarked) [Compound 2.84.],< 100
10,CCCc1n[nH]c2c1C(CC)(c1cccc(Cl)c1)C(C#N)=C(N)O2 (centres unmarked) [Compound 2.85.],< 10000
11,CCC1(c2cc(Oc3ccccc3)cc(C(F)(F)F)c2)C(C#N)=C(N)Oc2[nH]nc(C)c21 (centres unmarked) [Compound 2.86.],< 1000
12,Cc1n[nH]c2c1C(c1cccc(Cl)c1)(C(F)(F)F)C(C#N)=C(N)O2 (centres unmarked) [Compound 2.87.],< 10000
13,Cc1n[nH]c2c1C(c1cc(Cl)cc(Cl)c1)(C(F)(F)F)C(C#N)=C(N)O2 (centres unmarked) [Compound 2.88.],< 1000
14,CCCC1(c2cc(Cl)cc(Cl)c2)C(C#N)=C(N)Oc2[nH]nc(C)c21 (centres unmarked) [Compound 2.89.],< 1000
15,CCCC1(c2ccc(Cl)c(Cl)c2)C(C#N)=C(N)Oc2[nH]nc(C)c21 (centres unmarked) [Compound 2.90.],< 1000
16,CCCC1(c2cccc(Cl)c2)C(C#N)=C(N)Oc2[nH]nc(C)c21 (centres unmarked) [Compound 2.94.],< 1000
17,Cc1n[nH]c2c1C(c1cccc(C(F)(F)F)c1)(C(F)(F)F)C(C#N)=C(N)O2 (centres unmarked) [Compound 2.95.],< 1000
18,Cc1n[nH]c2c1C(c1ccc(Cl)cc1)(C(F)(F)C(F)(F)F)C(C#N)=C(N)O2 (centres unmarked) [Compound 2.96.],< 1000
19,CCc1n[nH]c2c1C(CC)(c1cccc(C(F)(F)F)c1)C(C#N)=C(N)O2 (centres unmarked) [Compound 2.98.],< 1000
20,Cc1n[nH]c2c1C(CCC#N)(c1cccc(Cl)c1)C(C#N)=C(N)O2 (centres unmarked) [Compound 2.100.],< 10000
21,Cc1n[nH]c2c1C(CCC(F)(F)F)(c1cccc(C(F)(F)F)c1)C(C#N)=C(N)O2 (centres unmarked) [Compound 2.101.],< 10000
22,CCc1n[nH]c2c1C(c1cccc(C(F)(F)F)c1)(C1CC1)C(C#N)=C(N)O2 (centres unmarked) [Compound 2.104.],< 1000
23,CCC1(c2cccc(Cl)c2)C(C#N)=C(N)Oc2[nH]nc(CCC(F)F)c21 (centres unmarked) [Compound 2.105.],< 10000

row,SMILES,EC50 [nM]
1,CCC1(c2cccc(C(F)(F)F)c2)C(C#N)=C(N)Oc2[nH]nc(CCC(F)F)c21 (centres unmarked) [Compound 2.106.],< 10000
2,CCC1(c2cc(C(F)(F)F)cc(C(F)(F)F)c2)C(C#N)=C(N)Oc2[nH]nc(CCC(F)F)c21 (centres unmarked) [Compound 2.107.],< 1000
3,Cc1n[nH]c2c1C(CC(C)C)(c1cc(C(F)(F)F)cc(C(F)(F)F)c1)C(C#N)=C(N)O2 (centres unmarked) [Compound 2.108.],< 100
4,CCc1n[nH]c2c1C(CC)(c1cc(Cl)cc(Cl)c1)C(C#N)=C(N)O2 (centres unmarked) [Compound 2.109.],< 1000
5,CCCc1n[nH]c2c1C(CC)(c1cc(Cl)cc(Cl)c1)C(C#N)=C(N)O2 (centres unmarked) [Compound 2.110.],< 1000
6,Cc1cc(C2(C3CC3)C(C#N)=C(N)Oc3[nH]nc(C)c32)ccc1O (centres unmarked) [Compound 2.111.],< 10000
7,Cc1n[nH]c2c1C(c1cc(Cl)cc(Cl)c1)(C(C)C)C(C#N)=C(N)O2 (centres unmarked) [Compound 2.112.],< 10
8,CCC1(c2cc(Cl)cc(Oc3ccccc3)c2)C(C#N)=C(N)Oc2[nH]nc(C)c21 (centres unmarked) [Compound 2.113.],< 100
9,CCc1n[nH]c2c1C(c1ccc(Cl)cc1)(C1CC1)C(C#N)=C(N)O2 (centres unmarked) [Compound 2.114.],< 100
10,CCCc1n[nH]c2c1C(c1ccc(Cl)cc1)(C1CC1)C(C#N)=C(N)O2 (centres unmarked) [Compound 2.115.],< 100
11,CCC1(c2cccc(Cl)c2)C(C#N)=C(N)Oc2[nH]nc(C(C)C)c21 (centres unmarked) [Compound 2.116.],< 1000
12,CCC1(c2cccc(Cl)c2)C(C#N)=C(N)Oc2[nH]nc(C3CC3)c21 (centres unmarked) [Compound 2.117.],< 10000
13,CCC1(c2cccc(C(F)(F)F)c2)C(C#N)=C(N)Oc2[nH]nc(C(C)C)c21 (centres unmarked) [Compound 2.118.],< 1000
14,CCC1(c2cccc(C(F)(F)F)c2)C(C#N)=C(N)Oc2[nH]nc(C3CC3)c21 (centres unmarked) [Compound 2.119.],< 1000
15,CCC1(c2cc(C(F)(F)F)cc(C(F)(F)F)c2)C(C#N)=C(N)Oc2[nH]nc(C(C)C)c21 (centres unmarked) [Compound 2.120.],< 100
16,CCC1(c2cc(C(F)(F)F)cc(C(F)(F)F)c2)C(C#N)=C(N)Oc2[nH]nc(C3CC3)c21 (centres unmarked) [Compound 2.121.],< 100
17,Cc1n[nH]c2c1C(c1cccc(Cl)c1)(C(C)C)C(C#N)=C(N)O2 (centres unmarked) [Compound 2.122.],< 100
18,CSc1ccc(C2(C(C)C)C(C#N)=C(N)Oc3[nH]nc(C)c32)cc1 (centres unmarked) [Compound 2.123.],< 100
19,COc1ccc(C2(C(C)C)C(C#N)=C(N)Oc3[nH]nc(C)c32)cc1Cl (centres unmarked) [Compound 2.124.],< 10
20,Cc1n[nH]c2c1C(CC(C)C)(c1cc(Cl)cc(Cl)c1)C(C#N)=C(N)O2 (centres unmarked) [Compound 2.125.],< 100
21,Cc1n[nH]c2c1C(CC(C)C)(c1cccc(Cl)c1)C(C#N)=C(N)O2 (centres unmarked) [Compound 2.126.],< 1000
22,CC(C)c1n[nH]c2c1C(c1ccc(Cl)cc1)(C1CC1)C(C#N)=C(N)O2 (centres unmarked) [Compound 2.128.],< 10000
23,N#CC1=C(N)Oc2[nH]nc(C3CC3)c2C1(c1ccc(Cl)cc1)C1CC1 (centres unmarked) [Compound 2.129.],< 10000

row,SMILES,EC50 [nM]
1,CCc1n[nH]c2c1C(CC)(c1ccc(Oc3ccccc3)cc1)C(C#N)=C(N)O2 (centres unmarked) [Compound 2.130.],< 1000
2,CCC1(c2ccc(Oc3ccccc3)cc2)C(C#N)=C(N)Oc2[nH]nc(C3CC3)c21 (centres unmarked) [Compound 2.131.],< 10000
3,CCC1(c2cc(Cl)cc(Cl)c2)C(C#N)=C(N)Oc2[nH]nc(C(C)C)c21 (centres unmarked) [Compound 2.132.],< 1000
4,CCC1(c2cc(Cl)cc(Cl)c2)C(C#N)=C(N)Oc2[nH]nc(C3CC3)c21 (centres unmarked) [Compound 2.133.],< 1000
5,Cc1n[nH]c2c1C(c1ccc(F)c(Cl)c1)(C(C)C)C(C#N)=C(N)O2 (centres unmarked) [Compound 2.134.],< 100
6,Cc1n[nH]c2c1C(c1ccc(Cl)c(Cl)c1)(C(C)C)C(C#N)=C(N)O2 (centres unmarked) [Compound 2.135.],< 100
7,CC(C)C1(c2cc(Cl)cc(Cl)c2)C(C#N)=C(N)Oc2[nH]nc(C3CC3)c21 (centres unmarked) [Compound 2.136.],< 100
8,Cc1n[nH]c2c1C(c1cccc(C(F)(F)F)c1)(C(C)C)C(C#N)=C(N)O2 (centres unmarked) [Compound 2.137.],< 100
9,Cc1n[nH]c2c1C(c1ccc(Cl)cc1)(C1CCC1)C(C#N)=C(N)O2 (centres unmarked) [Compound 2.138.],< 1000
10,CCc1n[nH]c2c1C(c1ccc(Cl)cc1)(C1CCC1)C(C#N)=C(N)O2 (centres unmarked) [Compound 2.139.],< 1000
11,N#CC1=C(N)Oc2[nH]nc(C3CC3)c2C1(c1ccc(Cl)cc1)C1CCC1 (centres unmarked) [Compound 2.140.],< 10000
12,Cc1n[nH]c2c1C(CC(C)C)(c1ccc(Cl)c(Cl)c1)C(C#N)=C(N)O2 (centres unmarked) [Compound 2.141.],< 1000
13,Cc1n[nH]c2c1C(CC(C)C)(c1ccc(Cl)cc1)C(C#N)=C(N)O2 (centres unmarked) [Compound 2.142.],< 10000
14,Cc1n[nH]c2c1C(c1ccc(Cl)cc1)(C(C)C)C(C#N)=C(N)O2 (centres unmarked) [Compound 2.143.],< 1000
15,COc1ccc(C2(C(C)C)C(C#N)=C(N)Oc3[nH]nc(C)c32)cc1C(F)(F)F (centres unmarked) [Compound 2.144.],< 10
16,Cc1n[nH]c2c1C(c1cc(Cl)cc(Br)c1)(C1CC1)C(C#N)=C(N)O2 (centres unmarked) [Compound 2.146.],< 100
17,CCc1n[nH]c2c1C(c1ccc(OC)c(Cl)c1)(C(C)C)C(C#N)=C(N)O2 (centres unmarked) [Compound 2.147.],< 1000
18,COc1ccc(C2(C(C)C)C(C#N)=C(N)Oc3[nH]nc(C4CC4)c32)cc1Cl (centres unmarked) [Compound 2.148.],< 1000
19,COc1ccc(C2(C3CC3)C(C#N)=C(N)Oc3[nH]nc(C)c32)cc1Cl (centres unmarked) [Compound 2.149.],< 100
20,COc1ccc(C2(C3CC3)C(C#N)=C(N)Oc3[nH]nc(C)c32)cc1C(F)(F)F (centres unmarked) [Compound 2.150.],< 100
21,CCc1n[nH]c2c1C(c1ccc(OC)c(Cl)c1)(C1CC1)C(C#N)=C(N)O2 (centres unmarked) [Compound 2.151.],< 1000
22,CCc1n[nH]c2c1C(c1ccc(OC)c(C(F)(F)F)c1)(C1CC1)C(C#N)=C(N)O2 (centres unmarked) [Compound 2.152.],< 1000
